Experimental data from BindingDB's records for doi:10.7270/Q2D798VP (Broad Institute, 2009).

Molecular target: T1, Zinc finger protein mex-5 (Caenorhabditis elegans, UniProt Q9XUB2)
T1 sequence (Q9XUB2 whole entry): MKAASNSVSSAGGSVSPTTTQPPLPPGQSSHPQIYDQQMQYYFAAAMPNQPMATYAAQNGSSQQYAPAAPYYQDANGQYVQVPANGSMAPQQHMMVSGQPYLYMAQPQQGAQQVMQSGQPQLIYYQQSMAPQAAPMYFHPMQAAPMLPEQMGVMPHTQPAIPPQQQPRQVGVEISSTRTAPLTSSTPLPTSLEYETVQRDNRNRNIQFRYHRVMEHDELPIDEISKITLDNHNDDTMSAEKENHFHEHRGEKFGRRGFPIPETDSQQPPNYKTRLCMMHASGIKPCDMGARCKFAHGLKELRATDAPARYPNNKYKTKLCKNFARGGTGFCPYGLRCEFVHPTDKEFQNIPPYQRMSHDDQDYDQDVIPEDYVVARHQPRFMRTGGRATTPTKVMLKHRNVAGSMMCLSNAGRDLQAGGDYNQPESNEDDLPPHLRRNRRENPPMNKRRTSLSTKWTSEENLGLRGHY
Assay: potency of MEX-5 RNA-binding blockers – biochemical, C. elegans, fluorescence polarization, dose response (AID 1960)

EC50 | SMILES
210 µM | C=CCOc1cccc(C2C(C(=O)c3ccc(C)o3)C(=O)C(=O)N2c2nnc(C)s2)c1 (configuration not stated) [3-(5-methylfuran-2-yl)carbonyl-1-(5-methyl-1,3,4-thiadiazol-2-yl)-4-oxidanyl-2-(3-prop-2-enoxyphenyl)-2H-pyrrol-5-one]
0.851 µM | C=CCOc1cccc(C2C(C(=O)c3ccc(C)o3)C(=O)C(=O)N2c2nccs2)c1 (configuration not stated) [3-(5-methylfuran-2-yl)carbonyl-4-oxidanyl-2-(3-prop-2-enoxyphenyl)-1-(1,3-thiazol-2-yl)-2H-pyrrol-5-one]
82.7 µM | CCCOc1cccc(C2C(C(=O)c3ccco3)C(=O)C(=O)N2c2nnc(C)s2)c1 (configuration not stated) [3-(furan-2-carbonyl)-4-hydroxy-1-(5-methyl-1,3,4-thiadiazol-2-yl)-2-(3-propoxyphenyl)-2H-pyrrol-5-one]
> 300 µM | C=CCOc1ccc(C2C(C(=O)c3ccco3)C(=O)C(=O)N2c2nnc(C)s2)cc1 (configuration not stated) [3-(furan-2-carbonyl)-4-hydroxy-1-(5-methyl-1,3,4-thiadiazol-2-yl)-2-(4-prop-2-enoxyphenyl)-2H-pyrrol-5-one]
> 300 µM | Cc1nnc(N2C(=O)C(=O)C(C(=O)c3ccco3)C2c2cccc3ccccc23)s1 (configuration not stated) [3-(furan-2-carbonyl)-4-hydroxy-1-(5-methyl-1,3,4-thiadiazol-2-yl)-2-naphthalen-1-yl-2H-pyrrol-5-one]
76.6 µM | CSc1nnc(N2C(=O)C(=O)C(C(=O)c3ccco3)C2c2ccccc2)s1 (configuration not stated) [3-(furan-2-carbonyl)-4-hydroxy-1-(5-methylsulfanyl-1,3,4-thiadiazol-2-yl)-2-phenyl-2H-pyrrol-5-one]
31.5 µM | O=C1C(=O)N(c2ncccn2)C(c2cccs2)C1C(=O)c1ccco1 (configuration not stated) [3-(furan-2-carbonyl)-4-hydroxy-1-pyrimidin-2-yl-2-thiophen-2-yl-2H-pyrrol-5-one]
216 µM | COc1ccc(C2C(C(=O)c3ccco3)C(=O)C(=O)N2c2nnc(C)s2)cc1 (configuration not stated) [3-(furan-2-carbonyl)-4-hydroxy-2-(4-methoxyphenyl)-1-(5-methyl-1,3,4-thiadiazol-2-yl)-2H-pyrrol-5-one]
> 300 µM | Cc1ccc(C2C(C(=O)c3ccco3)C(=O)C(=O)N2c2nnc(C)s2)cc1 (configuration not stated) [3-(furan-2-carbonyl)-4-hydroxy-2-(4-methylphenyl)-1-(5-methyl-1,3,4-thiadiazol-2-yl)-2H-pyrrol-5-one]
16.4 µM | CSc1ccc(C2C(C(=O)c3ccco3)C(=O)C(=O)N2c2nnc(SC)s2)cc1 (configuration not stated) [3-(furan-2-carbonyl)-4-hydroxy-2-(4-methylsulfanylphenyl)-1-(5-methylsulfanyl-1,3,4-thiadiazol-2-yl)-2H-pyrrol-5-one]
18.3 µM | O=C1Nc2ccccc2C1=NNc1ccccc1 [3-(phenylhydrazo)-2-indolone]
77.1 µM | N#CC1C(=N)C2=C(N3CCCCC3)CCCC2C1(C#N)C#N (configuration not stated) [3-Amino-4-piperidin-1-yl-5,6,7,7a-tetrahydro-indene-1,1,2-tricarbonitrile]
24.5 µM | COc1ccc(N2C(=O)C(=Nc3ccccc3O)C(Cl)C2=O)cc1 (configuration not stated) [3-Chloro-4-(2-hydroxy-phenylamino)-1-(4-methoxy-phenyl)-pyrrole-2,5-dione]
73 µM | O=C1C(=Nc2ccccc2O)C(Cl)C(=O)N1c1ccccc1 (configuration not stated) [3-Chloro-4-(2-hydroxy-phenylamino)-1-phenyl-pyrrole-2,5-dione]
> 300 µM | O=c1c2ccccc2nc(N=NCc2ccc(O)cc2)n1O [3-Hydroxy-2-{N'-[1-(4-hydroxy-phenyl)-meth-(E)-ylidene]-hydrazino}-3H-quinazolin-4-one]
37.7 µM | Cc1cc(CN=Nc2ccc([N+](=O)[O-])cn2)c(C)n1-c1cccc(C(=O)O)c1 [3-[2,5-dimethyl-3-[[(5-nitro-2-pyridinyl)hydrazinylidene]methyl]-1-pyrrolyl]benzoic acid]
> 300 µM | O=NCc1cccn1-c1cccc(C(=O)O)c1 [3-[2-(hydroximinomethyl)pyrrol-1-yl]benzoic acid]
